Data on one compound can be found in publication PMC9448386, “Discovery of novel conjugates of quinoline and thiazolidinone urea as potential anti-colorectal cancer agent” (Journal of Enzyme Inhibition and Medicinal Chemistry, 2022).

Series [1] concerns the target HGFR (Homo sapiens, UniProt P08581). The series is described as follows: Mobility shift assay, HGFR kinase inhibition. In kind it is biochemical. The following applies: mean of two independent experiments. How it is done:
(§1) Kinase inhibitory activity against HGFR, MST1R, ABL, PDGFRβ, AXL, FLT3, RET, c-Src, and VEGFR-2 was evaluated by the mobility shift assay. Detailed operation could be found in our previous research.

Series [2] has as its target T1, FLT3 (Homo sapiens, UniProt P36888).
T1 sequence (P36888 27-993): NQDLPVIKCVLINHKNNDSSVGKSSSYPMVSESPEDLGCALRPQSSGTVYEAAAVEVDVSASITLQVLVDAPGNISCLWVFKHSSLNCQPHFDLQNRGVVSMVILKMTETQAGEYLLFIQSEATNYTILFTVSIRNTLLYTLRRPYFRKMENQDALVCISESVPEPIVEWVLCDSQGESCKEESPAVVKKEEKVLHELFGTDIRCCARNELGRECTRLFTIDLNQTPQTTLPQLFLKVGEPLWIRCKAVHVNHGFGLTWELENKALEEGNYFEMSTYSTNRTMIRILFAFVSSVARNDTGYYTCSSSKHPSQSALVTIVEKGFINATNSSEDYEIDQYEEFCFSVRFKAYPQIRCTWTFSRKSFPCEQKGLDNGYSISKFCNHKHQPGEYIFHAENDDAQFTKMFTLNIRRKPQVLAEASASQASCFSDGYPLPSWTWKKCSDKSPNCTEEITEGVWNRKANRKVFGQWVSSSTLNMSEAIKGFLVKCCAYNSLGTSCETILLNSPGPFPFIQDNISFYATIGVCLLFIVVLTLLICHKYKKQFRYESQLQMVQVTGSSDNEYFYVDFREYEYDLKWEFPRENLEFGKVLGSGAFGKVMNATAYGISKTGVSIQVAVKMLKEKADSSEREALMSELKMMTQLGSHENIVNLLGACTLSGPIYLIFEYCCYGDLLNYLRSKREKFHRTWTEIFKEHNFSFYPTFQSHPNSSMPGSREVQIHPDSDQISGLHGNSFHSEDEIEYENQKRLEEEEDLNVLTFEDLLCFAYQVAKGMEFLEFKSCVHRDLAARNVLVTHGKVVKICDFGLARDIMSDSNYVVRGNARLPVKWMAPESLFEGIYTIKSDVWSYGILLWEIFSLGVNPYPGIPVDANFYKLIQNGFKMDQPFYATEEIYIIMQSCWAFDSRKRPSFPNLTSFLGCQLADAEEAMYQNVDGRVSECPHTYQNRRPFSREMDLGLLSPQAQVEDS
The series is described as follows: Mobility shift assay, FLT3. Format: biochemical. The following applies: mean of two independent experiments, SD shown. How it is done:
as §1

The target in series [3] is PDGFRβ (Homo sapiens, UniProt P09619). The series is described as follows: Mobility shift assay, PDGFRβ. Format: biochemical. The note with it: mean of two independent experiments, SD shown. As for the experimental part:
as §1

Series [4] concerns the target c-Src (Homo sapiens, UniProt P12931). Kind of series: Mobility shift assay, c-Src. Format: biochemical. The following applies: mean of two independent experiments, SD shown. As for the experimental part:
as §1

Series [5] concerns COLO 205 cells. Kind of series: MTT assay, cytotoxic activity against COLO 205. The note with it: Homo sapiens, COLO 205; MTT; average of three separate determinations, SD shown. In kind it is cell-based. From the text:
(§2) Taking lead compound BC2021-104511-15i, Fruquintinib and Regorafenib as positive controls, the cytotoxic activity against HT-29, HCT-116, COLO-205 and FHC cell lines by MTT assay. Detailed operation could be found in our previous study.
Background: Formazan colour is commonly taken as a measure of viable cells.

Series [6] deals with VEGFR-2 (Homo sapiens, UniProt P35968). The series is described as follows: Mobility shift assay, VEGFR-2. Format: biochemical. The note with it: mean of two independent experiments, SD shown. How it is done: as §1
Series [7] addresses ABL (Homo sapiens, UniProt P00519). The series is described as follows: Mobility shift assay, ABL. In kind it is biochemical. The following applies: mean of two independent experiments, SD shown. As for the experimental part: as §1
The target in series [8] is MST1R (Homo sapiens, UniProt Q04912). The series is described as follows: Mobility shift assay, MST1R kinase inhibition. Format: biochemical. The following applies: mean of two independent experiments. As for the experimental part:
as §1

The nature of series [9]: MTT assay, cytotoxicity against FHC cells. In kind it is cell-based. The following applies: FHC cells (normal colorectal mucosa epithelial cells); human normal colorectal mucosa epithelial cells; average of three separate determinations. As for the experimental part: In order to investigate the cell selectivity index, the cytotoxicity of potent compounds against human normal colorectal mucosa epithelial cell FHC cells was determined.
as §2

The subject of series [10] is HT-29 cells. The series is described as follows: MTT assay, cytotoxic activity against HT-29. The note with it: Homo sapiens, HT-29, average of three separate determinations, SD shown. Format: cell-based, human.
Description: as §2

Series [11] deals with RET (Homo sapiens, UniProt P07949). The series is described as follows: Mobility shift assay, RET. The following applies: mean of two independent experiments, SD shown. In kind it is biochemical. How it is done:
as §1

Series [12] relates to HCT-116 cells. The series is described as follows: MTT assay, cytotoxic activity against HCT-116. Format: cell-based. The following applies: Homo sapiens, average of three separate determinations, SD shown.
Description: as §2

The target of series [13] is T2, AXL (Homo sapiens, UniProt P30530).
T2 sequence (P30530 26-894): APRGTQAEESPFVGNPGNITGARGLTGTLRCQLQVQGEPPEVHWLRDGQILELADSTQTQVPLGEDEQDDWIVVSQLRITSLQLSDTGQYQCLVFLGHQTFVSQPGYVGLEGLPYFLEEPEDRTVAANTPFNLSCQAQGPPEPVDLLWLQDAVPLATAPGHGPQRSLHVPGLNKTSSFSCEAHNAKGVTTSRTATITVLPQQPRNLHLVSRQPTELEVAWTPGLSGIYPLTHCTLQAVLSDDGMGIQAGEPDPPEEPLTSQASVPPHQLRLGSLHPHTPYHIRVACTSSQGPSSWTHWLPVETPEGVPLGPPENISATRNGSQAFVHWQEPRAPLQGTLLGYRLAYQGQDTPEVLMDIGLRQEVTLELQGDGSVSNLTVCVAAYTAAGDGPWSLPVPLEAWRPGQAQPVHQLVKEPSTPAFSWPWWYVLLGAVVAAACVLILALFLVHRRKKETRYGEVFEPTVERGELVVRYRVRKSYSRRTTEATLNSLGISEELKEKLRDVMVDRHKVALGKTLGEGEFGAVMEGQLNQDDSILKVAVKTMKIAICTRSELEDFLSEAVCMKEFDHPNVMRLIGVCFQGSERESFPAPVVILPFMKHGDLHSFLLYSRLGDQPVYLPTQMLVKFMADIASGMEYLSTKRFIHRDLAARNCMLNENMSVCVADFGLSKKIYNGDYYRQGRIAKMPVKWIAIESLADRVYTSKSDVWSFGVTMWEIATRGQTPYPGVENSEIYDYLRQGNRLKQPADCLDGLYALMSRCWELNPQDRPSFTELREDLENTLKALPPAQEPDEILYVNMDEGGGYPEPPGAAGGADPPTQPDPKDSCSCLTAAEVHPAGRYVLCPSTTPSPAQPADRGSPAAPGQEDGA
The series is described as follows: Mobility shift assay, AXL. Format: biochemical. The note with it: mean of two independent experiments, SD shown. How it is done:
as §1

Sequence of HGFR (P08581 25-1390): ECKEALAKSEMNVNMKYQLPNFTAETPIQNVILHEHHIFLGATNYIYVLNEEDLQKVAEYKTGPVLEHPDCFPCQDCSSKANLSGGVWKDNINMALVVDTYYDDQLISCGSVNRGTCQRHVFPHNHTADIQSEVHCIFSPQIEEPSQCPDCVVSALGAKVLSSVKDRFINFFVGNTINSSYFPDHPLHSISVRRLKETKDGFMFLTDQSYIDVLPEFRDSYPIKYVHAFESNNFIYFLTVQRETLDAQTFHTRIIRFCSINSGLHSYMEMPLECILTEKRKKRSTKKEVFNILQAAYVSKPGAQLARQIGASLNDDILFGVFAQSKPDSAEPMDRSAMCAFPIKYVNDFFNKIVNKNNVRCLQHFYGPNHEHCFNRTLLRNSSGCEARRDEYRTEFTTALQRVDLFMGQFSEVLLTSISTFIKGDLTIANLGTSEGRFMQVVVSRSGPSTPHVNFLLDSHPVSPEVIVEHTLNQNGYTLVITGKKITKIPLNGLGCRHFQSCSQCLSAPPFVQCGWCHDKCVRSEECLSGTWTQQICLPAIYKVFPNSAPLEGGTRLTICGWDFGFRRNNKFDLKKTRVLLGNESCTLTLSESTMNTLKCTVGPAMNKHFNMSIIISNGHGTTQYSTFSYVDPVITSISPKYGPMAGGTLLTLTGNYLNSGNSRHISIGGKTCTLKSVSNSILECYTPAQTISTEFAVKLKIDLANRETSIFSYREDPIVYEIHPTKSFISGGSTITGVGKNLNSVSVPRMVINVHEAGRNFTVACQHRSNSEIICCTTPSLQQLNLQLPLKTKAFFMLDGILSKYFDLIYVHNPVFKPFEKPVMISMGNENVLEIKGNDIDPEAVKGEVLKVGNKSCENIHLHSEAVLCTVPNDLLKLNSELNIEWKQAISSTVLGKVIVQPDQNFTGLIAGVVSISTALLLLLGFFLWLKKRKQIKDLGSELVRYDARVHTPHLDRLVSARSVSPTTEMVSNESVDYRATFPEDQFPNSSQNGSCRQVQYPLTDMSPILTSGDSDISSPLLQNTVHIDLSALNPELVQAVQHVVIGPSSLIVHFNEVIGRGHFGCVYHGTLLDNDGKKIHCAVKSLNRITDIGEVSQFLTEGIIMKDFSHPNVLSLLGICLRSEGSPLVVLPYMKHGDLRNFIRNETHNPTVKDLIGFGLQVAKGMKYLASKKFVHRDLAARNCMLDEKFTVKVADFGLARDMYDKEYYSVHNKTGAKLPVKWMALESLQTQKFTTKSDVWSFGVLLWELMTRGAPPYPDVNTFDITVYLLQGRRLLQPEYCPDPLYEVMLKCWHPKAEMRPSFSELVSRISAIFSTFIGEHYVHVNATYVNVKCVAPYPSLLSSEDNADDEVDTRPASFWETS
Sequence of PDGFRβ (P09619 33-1106): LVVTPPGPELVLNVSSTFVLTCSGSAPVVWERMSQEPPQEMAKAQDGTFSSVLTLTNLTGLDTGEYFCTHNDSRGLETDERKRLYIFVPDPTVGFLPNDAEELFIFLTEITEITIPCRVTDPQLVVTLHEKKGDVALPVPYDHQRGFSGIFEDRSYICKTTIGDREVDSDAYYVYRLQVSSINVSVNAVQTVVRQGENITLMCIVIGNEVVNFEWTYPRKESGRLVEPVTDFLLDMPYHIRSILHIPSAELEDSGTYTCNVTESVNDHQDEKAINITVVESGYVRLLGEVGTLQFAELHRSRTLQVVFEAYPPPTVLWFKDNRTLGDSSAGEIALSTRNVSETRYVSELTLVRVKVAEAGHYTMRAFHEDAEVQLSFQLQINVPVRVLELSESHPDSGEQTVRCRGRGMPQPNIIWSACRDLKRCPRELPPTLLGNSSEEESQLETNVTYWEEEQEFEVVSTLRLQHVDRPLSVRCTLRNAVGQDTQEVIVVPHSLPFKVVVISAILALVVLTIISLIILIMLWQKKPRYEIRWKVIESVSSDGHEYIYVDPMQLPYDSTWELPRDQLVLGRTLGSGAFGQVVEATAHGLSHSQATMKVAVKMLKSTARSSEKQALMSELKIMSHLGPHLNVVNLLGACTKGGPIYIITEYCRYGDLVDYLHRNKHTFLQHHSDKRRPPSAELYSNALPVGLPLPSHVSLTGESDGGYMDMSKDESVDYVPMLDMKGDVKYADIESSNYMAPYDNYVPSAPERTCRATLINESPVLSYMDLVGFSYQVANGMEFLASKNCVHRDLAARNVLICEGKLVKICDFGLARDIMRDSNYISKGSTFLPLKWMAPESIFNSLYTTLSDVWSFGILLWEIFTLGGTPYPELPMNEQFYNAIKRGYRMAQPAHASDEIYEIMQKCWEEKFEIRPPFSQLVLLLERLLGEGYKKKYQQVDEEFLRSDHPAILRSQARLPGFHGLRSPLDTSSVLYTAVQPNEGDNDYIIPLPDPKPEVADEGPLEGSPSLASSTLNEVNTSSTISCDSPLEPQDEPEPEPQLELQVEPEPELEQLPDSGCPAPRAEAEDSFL
Sequence of c-Src (P12931 whole entry): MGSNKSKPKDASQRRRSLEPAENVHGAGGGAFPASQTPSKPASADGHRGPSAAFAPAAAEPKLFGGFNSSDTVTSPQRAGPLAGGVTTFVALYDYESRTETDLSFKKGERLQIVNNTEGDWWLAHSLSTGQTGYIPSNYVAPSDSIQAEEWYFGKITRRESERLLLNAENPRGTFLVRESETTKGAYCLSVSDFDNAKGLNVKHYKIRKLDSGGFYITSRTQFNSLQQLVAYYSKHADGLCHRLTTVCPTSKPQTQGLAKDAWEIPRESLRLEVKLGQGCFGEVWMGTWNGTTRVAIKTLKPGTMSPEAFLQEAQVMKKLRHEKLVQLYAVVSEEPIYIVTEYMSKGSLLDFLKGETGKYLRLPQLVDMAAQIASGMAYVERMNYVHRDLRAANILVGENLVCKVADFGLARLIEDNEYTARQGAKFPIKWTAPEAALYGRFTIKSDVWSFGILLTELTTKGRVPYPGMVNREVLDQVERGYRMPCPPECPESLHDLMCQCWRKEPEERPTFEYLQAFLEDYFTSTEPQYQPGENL
Sequence of ABL (P00519 whole entry): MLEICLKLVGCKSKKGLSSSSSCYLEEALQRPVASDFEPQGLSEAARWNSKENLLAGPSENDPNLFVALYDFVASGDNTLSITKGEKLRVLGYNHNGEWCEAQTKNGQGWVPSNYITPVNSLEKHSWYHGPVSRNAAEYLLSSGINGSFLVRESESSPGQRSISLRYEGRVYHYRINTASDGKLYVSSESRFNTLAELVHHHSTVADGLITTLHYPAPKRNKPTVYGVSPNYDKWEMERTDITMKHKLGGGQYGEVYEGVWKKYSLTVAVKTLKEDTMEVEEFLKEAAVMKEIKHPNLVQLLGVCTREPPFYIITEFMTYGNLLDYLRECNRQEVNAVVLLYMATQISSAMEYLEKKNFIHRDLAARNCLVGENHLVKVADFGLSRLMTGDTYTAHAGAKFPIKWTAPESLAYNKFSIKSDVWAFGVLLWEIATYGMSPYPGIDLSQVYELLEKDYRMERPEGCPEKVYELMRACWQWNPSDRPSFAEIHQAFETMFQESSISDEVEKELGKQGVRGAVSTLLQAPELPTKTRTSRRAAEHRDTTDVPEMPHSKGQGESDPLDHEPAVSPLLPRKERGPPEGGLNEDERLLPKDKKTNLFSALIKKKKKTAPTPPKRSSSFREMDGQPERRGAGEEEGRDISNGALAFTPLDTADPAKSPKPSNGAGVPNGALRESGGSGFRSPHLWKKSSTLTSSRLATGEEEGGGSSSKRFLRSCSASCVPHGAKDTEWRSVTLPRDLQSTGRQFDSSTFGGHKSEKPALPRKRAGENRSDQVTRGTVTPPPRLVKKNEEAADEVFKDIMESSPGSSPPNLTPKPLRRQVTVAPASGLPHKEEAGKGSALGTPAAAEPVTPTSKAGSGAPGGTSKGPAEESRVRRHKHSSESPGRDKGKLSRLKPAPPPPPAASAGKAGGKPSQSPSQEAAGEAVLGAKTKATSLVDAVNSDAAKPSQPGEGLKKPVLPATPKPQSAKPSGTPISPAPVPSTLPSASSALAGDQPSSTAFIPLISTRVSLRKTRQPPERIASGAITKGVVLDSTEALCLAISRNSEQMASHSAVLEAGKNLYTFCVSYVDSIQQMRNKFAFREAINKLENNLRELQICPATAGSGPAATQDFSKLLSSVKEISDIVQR

On to `COCC(=O)N1CCC(Oc2cc3nccc(Oc4ccc(NC(=O)NN5C(=O)CSC5c5c(F)cccc5F)cc4F)c3cc2OC)CC1` (stereo not shown) [Compound 10b, 1–(2-(2,6-Difluorophenyl)-4-oxothiazolidin-3-yl)-3–(3-fluoro-4-((6-methoxy-7-((1–(2-methoxyacetyl)piperidin-4-yl)oxy)quinolin-4-yl)oxy)phenyl)urea], for which the IC50 (commonly the point on the concentration scale where inhibition reaches its midpoint) in series [1] was 180 nM; in series [2], over 10000 nM; in series [3], 1200 ± 95 nM; in series [4] it was 690 ± 57 nM; in [5], 310 ± 21 nM; in [6], 2360 ± 180 nM. Further, the concentration for half-maximal inhibition (IC50) in [7] was 3280 ± 260 nM; in [8] it was 85 nM; in series [9] it was over 10000 nM; in series [10], 3000 ± 240 nM; in series [11] it was 1520 ± 140 nM; in series [12] it was 3700 ± 340 nM. Besides, the IC50 in series [13] was 1500 ± 150 nM.
